# Experimental data: patent US20250375454A1, “METHODS FOR TREATING HEPATOCELLULAR CARCINOMA” (THE HONG KONG POLYTECHNIC UNIVERSITY, priority 2024, published 2025)
# “Also recorded” adds a separate entry of the source.
# Legend:
# [1] = system: c-Myc; experiment: Western blot of c-Myc expression in Huh7 cells; type: cell-based
# Procedure: (§1) The Huh7 cells and tumor tissues were lysed on ice using the lysis buffer. Protein concentration was quantified using Bradford assay (Bio-Rad, Hercules, CA, USA). Equivalent amounts of protein (25-50 μg) were loaded onto 10% sodium dodecyl sulfate-polyacrylamide gel electrophoresis (SDS-PAGE) and transferred to polyvinylidene fluoride (PVDF) membranes. Membranes were blocked with 5% non-fat milk in Tris-buffered saline Tween 20 (TBST) for an hour. The blots were incubated with primary antibodies (EGFR (4267S, Cell signaling technology, MA, USA), c-Myc (5605S, Cell signaling technology, MA, USA), Bax (2772S, Cell signaling technology, MA, USA), Bcl-2 (sc-7382, Santa Cruze, TX, USA), ERBB2 (2165S, Cell signaling technology, MA, USA), and α-tubulin (62204, Invitrogen, MA, USA), 1:1000) at 4° C. overnight. Subsequently, the membranes were washed thrice (15 min each) with TBST solution and incubated for 1 h with secondary horseradish peroxidase-conjugated antibodies (NA934 and NA931, Cytiva, MA, USA, 1:5000). Blots were then detected using an ECL kit and photographed using a ChemiDoc Imaging System (Bio-Rad, MA, USA). The bands were quantified using the ImageJ software (NIH, USA). The intensities of the bands for each protein sample were normalized to those of α-tubulin (internal standard protein). Quantitative data are presented as a fold change of untreated control.
# [2] = system: ERBB2; experiment: Western blot of ERBB2 expression in Huh7 cells; type: cell-based
# Procedure: as §1
# [3] = system: Huh7 cells; experiment: MTT cytotoxicity assay, Huh7; type: cell-based; details: for cytotoxicity (cell viability): Huh7, ZAK-I-57 24 h, ZAK-I-64 and ZAK-I-68 48 h
# Procedure: (§2) Huh7 and PLC/PRF/5 (CRL-8024™) cells were purchased from Thermo Fisher Scientific and the ATCC, respectively. MIHA was kindly provided by Dr. J. R. Chowdhury, Albert Einstein College of Medicine, New York. The cell lines were cultured in Dulbecco's modified Eagle medium (DMEM, Gibco, MA, USA) supplemented with 10% fetal bovine serum (FBS, BI, MA, USA) and 1× penicillin-streptomycin solution (Solarbio) at 37° C. in a humid, 5% CO2 atmosphere.
# (§3) Huh7 and PLC/PRF/5 cells at a density of 5×10^3 cells/well were cultured in 96-well plates and incubated at 37° C. in 5% CO2. Both cell lines were treated with different concentrations of benzoxazinone derivatives (ZAK-I-57, ZAK-I-64, and ZAK-I-68). Both cell lines were incubated with ZAK-I-57 for 24 h and for 48 h with ZAK-I-64 and ZAK-I-68. MTT (3-[4,5-dimethylthiazol-2-yl]-2,5-diphenyltetrazolium bromide) solution was then added to each well and incubated for 3 h in a CO2 atmosphere at 37° C. Insoluble formazan crystals were dissolved by adding 100 μL of dimethyl sulfoxide (DMSO) to each well, followed by orbital agitation for 10 min. A minimum of three biological replicates were analyzed using a plate reader to determine IC50. The same experiment was performed with MIHA hepatocyte cells to evaluate the selectivity cytotoxicity of ZAK-I-57.
# [4] = system: EGFR; experiment: Western blot of EGFR expression in Huh7 cells; type: cell-based
# Procedure: as §1
# [5] = system: PLC/PRF/5 tumor-bearing mice; experiment: PLC/PRF/5 tumor-bearing mouse model; type: in vivo; details: for tumor cellularity (H&E staining) / gross anatomical examination of vital organs / histopathology of vital organs (H&E) / body weight: sorafenib 30 mg/kg; for tumor cellularity (H&E staining): vs vehicle control; for gross anatomical examination of vital organs / histopathology of vital organs (H&E): heart, liver, spleen, lung, kidney; for body weight: oral gavage daily, 20 days
# Procedure: (§4) Male BALB/c nude mice (6-8 weeks old) were obtained from the Centralized Animal Facilities at the Hong Kong Polytechnic University. All animals were bred and housed under specific pathogen-free conditions, with access to sterile food and water. Environmental conditions were strictly controlled, with temperature maintained at 23±2° C., relative humidity between 30%-70%, and a 12-hour light/dark cycle. Mice were group-housed in accordance with institutional guidelines for recommended stocking density. The animal experiments were conducted according to institutional guidelines, and the experimental procedures were approved by the PolyU Animal Experimentation Ethics Committee (Ref. No. 19-20/57-ABCT-R-STUDENT).
# PLC/PRF/5 cells (5×10^5) were suspended in 100 μL PBS with Matrigel (1:1 ratio) and injected into the right back of nude mice. Small tumors (<70 mm^3) were formed two weeks after cell inoculation. Mice were then randomized into the vehicle control group, ZAK-I-57 treated groups (15 mg/kg and 30 mg/kg), or sorafenib (30 mg/kg) groups. Mice were administered 200 μL of vehicle water and drugs by oral gavage daily for three weeks. Tumor size was measured twice a week, and tumor volumes were calculated using the formula [(length×width×depth)/2 mm^3] while each mouse was weighed. At the end of the experiment, the mice were sacrificed, and the tumors and organs were collected for further experiments.
# as §1
# (§5) Tumors were fixed in 4% formalin, embedded in paraffin, and sectioned at […] thickness for IHC staining. Ki-67 primary antibody (ab16667, Abcam, MA, USA) and anti-mouse IgG recombinant secondary antibody (7056S, Cell Signaling Technology, MA, USA) were used for IHC staining. Hemotoxin (Invitrogen, MA, USA) was used to stain nuclei. The number of positively stained cells in Ki-67-stained slides was evaluated using ImageJ software (NIH, MD, USA).
# (§6) H&E staining was performed on histological sections of organs (heart, spleen, kidney, liver, and lung) to examine the toxicity of ZAK-I-57 in PLC/PRF/5 tumor-bearing and PDTX model mice. Briefly, the histological slides were deparaffinized using 100% xylene (v/v). The slides were then washed several times with ethanol solutions of various concentrations (70-100%, v/v) and immersed in hematoxylin for 5 min, followed by a quick dip in acidic alcohol. Next, the slides were immersed in Scott's tap water for 3 min and in 1% eosin for 30 s. Finally, the slides were dehydrated using ethanol solutions of various concentrations (70%-100%, v/v) and 100% xylene (v/v) and mounted using a mounting medium.
# [6] = system: PLC/PRF/5 cells; experiment: MTT cytotoxicity assay, PLC/PRF/5; type: cell-based; details: for cytotoxicity (cell viability): PLC/PRF/5, ZAK-I-57 24 h, ZAK-I-64 and ZAK-I-68 48 h
# Procedure: as §2, §3
# [7] = MTT cytotoxicity assay, MIHA normal hepatocytes; type: cell-based; details: human, MIHA normal hepatocyte cells, all concentrations, read-out: cell viability
# Procedure: as §2, §3
# [8] = system: MIHA cells; experiment: MTT cytotoxicity assay, MIHA normal hepatocytes; type: cell-based; details: Hepatocyte
# Procedure: as §2, §3
# [9] = system: HCC PDTX mouse model; experiment: HCC patient-derived tumor xenograft (PDTX #1) mouse model; type: in vivo, mice; details: for body weight / tumor cellularity (H&E staining) / gross anatomical examination of vital organs / histopathology of vital organs (H&E): ZAK-I-57 15 and 30 mg/kg, sorafenib 30 mg/kg; for gross anatomical examination of vital organs / histopathology of vital organs (H&E): heart, liver, spleen, lung, kidney
# Procedure: as §4
# The procedure for the establishment of PDTX #1 was previously described. Tumor cells from PDTX #1 was inoculated subcutaneously on the back of nude mice. When the tumors reached approximately 1,000 mm^3, mice with the first generation of xenografts (P1) were sacrificed, and the xenografts were isolated and expanded for the second generation (P2). When P2 xenografts reached an average volume of 70 mm^3, mice were subjected to ZAK-I-57 and sorafenib treatment. The development of PDTX was approved by the Institutional Review Board of the University of Hong Kong/Hospital Authority Hong Kong West Cluster (UW 17-056) and informed consents were obtained from patients.
# as §1, §5, §6
# [10] = ZAK-I-57 15 and 30 mg/kg, vs vehicle control and sorafenib 30 mg/kg
structure (smiles),measurement,setting,value
"O=c1oc(-c2ccc3ccccc3c2)nc2cc([N+](=O)[O-])ccc12 [ZAK-I-57, 2-(naphthalen-2-yl)-7-nitro-4H-3,1-benzoxazin-4-one]",c-Myc expression,"[1]; Huh7, 48 h treatment",significant downregulation
same,ERBB2 expression,"[2]; Huh7, 48 h treatment",significant downregulation
same,"IC50 against HCC cells, compared with sorafenib and artesunate",[3]; HCC cells (Huh7),lower than sorafenib and artesunate
same,cytotoxicity (cell viability),[3],concentration-dependent increase in cytotoxicity
same,EGFR expression,"[4]; Huh7, 48 h treatment",significant downregulation
same,Ki-67 suppression compared with sorafenib,[5]; 30 mg/kg,significantly greater Ki-67 suppression than sorafenib
same,tumor cell density and necrosis (H&E staining),[5]; 30 mg/kg,substantial decrease in cell density and necrosis
same,tumor volume reduction compared with sorafenib,[5]; 30 mg/kg,outperforming sorafenib
same,tumor weight reduction compared with sorafenib,[5]; 30 mg/kg,outperforming sorafenib
same,Bax expression in tumor (western blot),"[5]; 30 mg/kg, vs control",increase in the expression
same,Bcl-2 expression in tumor (western blot),"[5]; 30 mg/kg, vs control",significantly attenuated
same,EGFR expression in tumor (western blot),"[5]; 30 mg/kg, vs control",significantly attenuated
same,c-Myc expression in tumor (western blot),"[5]; 30 mg/kg, vs control",significantly attenuated
same,Ki-67 expression in tumor (IHC),[5]; 15 and 30 mg/kg,inhibition of Ki-67 expression
same,tumor growth inhibition,[5]; 15 and 30 mg/kg,significantly inhibited tumor growth
same,tumor cellularity (H&E staining),[5]; ZAK-I-57 15 and 30 mg/kg,marked reduction in tumor cellularity
same,tumor volume,[5]; [10],marked reduction
same,tumor weight,[5]; [10],marked reduction
same,gross anatomical examination of vital organs,[5]; ZAK-I-57 15 and 30 mg/kg,maintained tissue morphology comparable to the vehicle control
same,histopathology of vital organs (H&E),[5]; ZAK-I-57 15 and 30 mg/kg,no histological abnormalities were observed
same,body weight,[5]; ZAK-I-57 15 and 30 mg/kg,no significant changes
same,"IC50 against HCC cells, compared with sorafenib and artesunate",[6]; HCC cells (PLC/PRF/5),lower than sorafenib and artesunate
same,cytotoxicity (cell viability),[6],concentration-dependent increase in cytotoxicity
same,viability at 24 h,[7]; 24 h,> 90%
same,viability at 48 h,[7]; 48 h,> 90%
same,IC50,[8]; 24 h,> 100 µM
same,IC50,[8]; 48 h,> 100 µM
same,IC50,[8]; time not stated,> 100 µM
same,percentage of tumor growth,"[9]; 15 mg/kg and 30 mg/kg, vs vehicle control",markedly diminished
same,Bax expression in tumor (western blot),[9]; 30 mg/kg,significantly upregulating
same,Bcl-2 expression in tumor (western blot),[9]; 30 mg/kg,downregulating
same,EGFR expression in tumor (western blot),[9]; 30 mg/kg,downregulated
same,Ki-67 suppression compared with sorafenib,[9]; 30 mg/kg,significantly greater Ki-67 suppression than sorafenib
same,c-Myc expression in tumor (western blot),[9]; 30 mg/kg,downregulated
same,tumor cell density and necrosis (H&E staining),[9]; 30 mg/kg,substantial decrease in cell density and necrosis
same,tumor volume reduction compared with sorafenib,[9]; 30 mg/kg,outperforming sorafenib
same,tumor weight,[9]; 30 mg/kg,significant reduction; also recorded: outperforming sorafenib
same,Ki-67 expression in tumor (IHC),[9]; 15 and 30 mg/kg,inhibition of Ki-67 expression
same,tumor progression (tumor volume),[9]; 15 and 30 mg/kg,significantly inhibited tumor progression in a dose-dependent manner
same,body weight,[9],no significant difference
same,tumor cellularity (H&E staining),[9]; vs vehicle control,marked reduction in tumor cellularity
same,gross anatomical examination of vital organs,[9],maintained tissue morphology comparable to the vehicle control
same,histopathology of vital organs (H&E),[9],no histological abnormalities were observed
"Cc1ccccc1-c1nc2cc([N+](=O)[O-])ccc2c(=O)o1 [ZAK-I-64, 2-(2-methylphenyl)-7-nitro-4H-3,1-benzoxazin-4-one]",c-Myc expression,"[1]; Huh7, 48 h treatment",no appreciable effect
same,c-Myc expression,"[1]; Huh7, 72 h treatment",significant downregulation
same,ERBB2 expression,"[2]; Huh7, 48 h treatment",no appreciable effect
same,ERBB2 expression,"[2]; Huh7, 72 h treatment",significant downregulation
same,cytotoxicity (cell viability),[3],concentration-dependent increase in cytotoxicity
same,EGFR expression,"[4]; Huh7, 48 h treatment",no appreciable effect
same,EGFR expression,"[4]; Huh7, 72 h treatment",significant downregulation
same,cytotoxicity (cell viability),[6],concentration-dependent increase in cytotoxicity
"O=c1oc(-c2ccc(O)cc2)nc2cc([N+](=O)[O-])ccc12 [ZAK-I-68, 2-(4-hydroxyphenyl)-7-nitro-4H-3,1-benzoxazin-4-one]",c-Myc expression,"[1]; Huh7, 48 h treatment",no appreciable effect
same,c-Myc expression,"[1]; Huh7, 72 h treatment",significant downregulation
same,ERBB2 expression,"[2]; Huh7, 48 h treatment",no appreciable effect
same,ERBB2 expression,"[2]; Huh7, 72 h treatment",significant downregulation
same,cytotoxicity (cell viability),[3],concentration-dependent increase in cytotoxicity
same,EGFR expression,"[4]; Huh7, 48 h treatment",no appreciable effect
same,EGFR expression,"[4]; Huh7, 72 h treatment",significant downregulation
same,cytotoxicity (cell viability),[6],concentration-dependent increase in cytotoxicity
"CNC(=O)c1cc(Oc2ccc(NC(=O)Nc3ccc(Cl)c(C(F)(F)F)c3)cc2)ccn1 [sorafenib, reference compound]",tumor cellularity (H&E staining),[5]; ZAK-I-57 15 and 30 mg/kg,marked reduction in tumor cellularity
same,gross anatomical examination of vital organs,[5]; ZAK-I-57 15 and 30 mg/kg,maintained tissue morphology comparable to the vehicle control
same,histopathology of vital organs (H&E),[5]; ZAK-I-57 15 and 30 mg/kg,absence of significant pathological changes
same,body weight,[5]; ZAK-I-57 15 and 30 mg/kg,only slight variation
same,body weight,[9],Slight variations
same,tumor cellularity (H&E staining),[9]; vs vehicle control,marked reduction in tumor cellularity
same,gross anatomical examination of vital organs,[9],maintained tissue morphology comparable to the vehicle control
same,histopathology of vital organs (H&E),[9],absence of significant pathological changes
